According to patent US20050014849A1, “Antifungal phenylethylene” (priority 2001, published 2005):
≈ marks a conversion by molar mass, not a printed value.

Columns and labels:
C. ater ATCC 14247 = test: Broth macrodilution MIC/MFC; type: cell-based, Cryptococcus ater
Protocol: (§1) TMPN was screened against yeasts by the broth macrodilution assay according to the NCCLS [7]. Yeasts were suspended and diluted as recommended to yield final inocula ranging from 0.5-2.5×10^3 cfu/ml. Tests were performed in sterile 12 by 75 mm plastic tubes containing two-fold dilutions of TMPN in 0.165 M morpholinepropanesulfonic acid buffered RPMI 1640 medium (pH 7.0). One tube was again left drug free (but contained an equivalent volume of DMSO) for a turbidity control. Tubes were incubated without agitation at the appropriate temperature (see Fungal Strains section above). MICs were determined after 72 h for Cryptococcus and after 48 h for other yeast genera. The MIC was defined as the lowest concentration of TMPN that inhibited all visible growth of the test organism (optically clear).
(§2) Minimum fungicidal concentrations (MFCs) were determined by subculturing 0.1 ml from each tube with no visible growth in the MIC broth macrodilution series onto the appropriate drug-free plates (see Fungal Strains section above).

T. asahii ATCC 20039 = test: Broth macrodilution MIC/MFC; type: cell-based, Trichosporon asahii
Protocol: as §1, §2

[1] = tested on: C. neoformans (ATCC 90112); test: Frequency of occurrence of spontaneous mutants; type: cell-based, Cryptococcus neoformans; settings: four times the broth macrodilution MIC
Protocol: (§3) Determination of the frequency of occurrence of spontaneous mutants was performed as previously described. Overnight cultures of C neoformans (ATCC 90112), C. albicans (ATCC 90028) and Trichosporon inkin (ATCC 18020) were diluted to an OD530 nm=0.3. 0.1 ml of each preparation was spread onto SDA plates containing four or eight times the broth macrodilution MIC of TMPN. The starting inoculum for each organism was also diluted and plated onto drug-free SDA plates for determination of cfu/ml. After a 48 h incubation at the appropriate temperature (see Fungal Strains section above), the number of colonies on drug-supplemented SDA was counted. The frequency of occurrence of spontaneous mutants was calculated by dividing the number of colonies on drug-containing plates by the number of colonies in the inoculum. When no colonies were visualized on drug-containing plates, the calculation was (<) 1 colony divided by the number of colonies in the inoculum.

C. tropicalis (9) = test: Broth macrodilution MIC/MFC; type: cell-based, Candida tropicalis
Protocol: as §1, §2

T. inkin (ATCC 18020) = test: Frequency of occurrence of spontaneous mutants; type: cell-based, Trichosporon inkin; settings: four times the broth macrodilution MIC
Protocol: as §3

[2] = tested on: all 60 Candida spp. clinical isolates; test: Broth macrodilution MFC/MIC ratios, combined Candida isolates; type: cell-based; settings: all 60 Candida spp. clinical isolates combined
Protocol: as §1, §2

C. albicans (ATCC 90028) = test: Video-enhanced DIC microscopy of yeast/hyphal morphology; type: cell-based, Candida albicans
From the text: The mechanism of action of TMPN was investigated microscopically, Candida albicans (ATCC 90028) cultures were exposed to one quarter or one half times the broth macrodilution MIC of TMPN in DMSO, or an equivalent concentration of DMSO for controls, until late-log phase. Cells were examined using an Axioscope microscope (Carl Zeiss, Thornwood, N.Y.) equipped with standard differential interference contrast (DIC) using a Plan-Neofluar 100×/1.3 (oil immersion) objective. The microscope was coupled to a C24007-07 (imaging tube camera type) video camera, via a 4×extension tube (Carl Zeiss), and an analog control unit (Hammamatsu Photonic Systems Corp., Bridgewater, N.J.). Real-time digital contrast enhancement was done with an Argus 10 Image Processor (Hammamatsu). Single frame images were digitized directly or from videotaped sequences using a Sony UP-5600MD video/digital printer (Sony Electronics, Inc., Montvale, N.J.) and prepared for printing in Photoshop 5.0 (Adobe Systems, Mountain View, Calif.). Final images were printed with a NP-1600M Medical Color Printer (Codonics, Inc., Middleburg Heights, Ohio).

[3] = tested on: Enterococcus faecalis ATCC 29212; test: NCCLS disk susceptibility test; type: cell-based; settings: disk diffusion
Protocol: (§4) Antimicrobial activity was assayed by National Committee for Clinical Laboratory Standards (NCCLS) disk susceptibility tests. Isolated colonies from overnight cultures were suspended and diluted as recommended to yield approximately 1-2×10^8 cfu/ml, and 50 μl of this preparation immediately spread on agar plates. NCCLS recommended agar media were used for S. pneumoniae and N. gonorrhoeae, and Mueller-Hinton agar for all other bacteria. Yeast strains were tested on SDA. Excess moisture was absorbed for 10 min prior to application of 6 mm paper discs containing two-fold dilutions of TMPN in sterile DMSO.

[4] = tested on: Micrococcus luteus Presque Isle 456; test: NCCLS disk susceptibility test; type: cell-based; settings: disk diffusion
Protocol: as §4

[5] = tested on: Escherichia coli ATCC 25922; test: NCCLS disk susceptibility test; type: cell-based; settings: disk diffusion
Protocol: as §4

[6] = tested on: Enterobacter cloacae ATCC 13047; test: NCCLS disk susceptibility test; type: cell-based; settings: disk diffusion
Protocol: as §4

[7] = tested on: Stenotrophomonas maltophilia ATCC 13637; test: NCCLS disk susceptibility test; type: cell-based; settings: disk diffusion
Protocol: as §4

[8] = tested on: Klebsiella pneumoniae Presque Isle 344; test: NCCLS disk susceptibility test; type: cell-based; settings: disk diffusion
Protocol: as §4

[9] = tested on: Staphylococcus aureus ATCC 29213; test: NCCLS disk susceptibility test; type: cell-based; settings: disk diffusion
Protocol: as §4

[10] = tested on: Staphylococcus epidermidis Presque Isle 4653; test: NCCLS disk susceptibility test; type: cell-based; settings: disk diffusion
Protocol: as §4

[11] = tested on: Neisseria gonorrhoeae ATCC 49226; test: NCCLS disk susceptibility test; type: cell-based; settings: disk diffusion
Protocol: as §4

[12] = tested on: Cryptococcus neoformans ATCC 90112; test: NCCLS disk susceptibility test; type: cell-based; settings: disk diffusion
Protocol: as §4

[13] = tested on: Bacillus subtilis Presque Isle 620; test: NCCLS disk susceptibility test; type: cell-based; settings: disk diffusion
Protocol: as §4

[14] = tested on: Streptococcus pneumoniae ATCC 6303; test: NCCLS disk susceptibility test; type: cell-based; settings: disk diffusion
Protocol: as §4

[15] = tested on: Candida albicans ATCC 90028; test: NCCLS disk susceptibility test; type: cell-based; settings: disk diffusion
Protocol: as §4

[16] = tested on: Proteus vulgaris Presque Isle 365; test: NCCLS disk susceptibility test; type: cell-based; settings: disk diffusion
Protocol: as §4

[17] = tested on: Pseudomonas aeruginosa Presque Isle 99; test: NCCLS disk susceptibility test; type: cell-based; settings: disk diffusion
Protocol: as §4

COc1cc(C=C[N+](=O)[O-])cc(OC)c1OC [TMPN, 1-(3′,4′,5′-trimethoxyphenyl)-2-nitro-ethylene]
MFC Range (C. ater ATCC 14247): 16 µg/mL (≈ 66.9 µM)
MIC Range (C. ater ATCC 14247): 8 µg/mL (≈ 33.4 µM)
MFC Range (T. asahii ATCC 20039): 16 µg/mL (≈ 66.9 µM)
MIC Range (T. asahii ATCC 20039): 8 µg/mL (≈ 33.4 µM)
frequency of occurrence of single-step resistant mutants [1]: ≤ 10^−6
MIC Range (C. tropicalis (9)): 32 to 64 µg/mL
frequency of occurrence of single-step resistant mutants (T. inkin (ATCC 18020)): ≤ 10^−6
share of isolates with MFC/MIC ratio ≦2 [2]: 47%
share of isolates with MFC/MIC ratio ≦4 [2]: 60%
cells with hyphal extensions (C. albicans (ATCC 90028); one half times the TMPN MIC): not observed
growth morphology observed (FIG. 4 panel b) (C. albicans (ATCC 90028); one half times the TMPN MIC): only yeast growth
growth rate (C. albicans (ATCC 90028); one half times the TMPN MIC): same rate as controls
hyphae seen (C. albicans (ATCC 90028); one quarter times the TMPN MIC): rarely seen
length of hyphae (C. albicans (ATCC 90028); one quarter times the TMPN MIC): < 20 μm
yeast/hyphae switching (C. albicans (ATCC 90028); sub-MIC exposure): did not exhibit yeast/hyphae switching
MIC [3]: 50-100 μg/disk
MIC [4]: 50-100 μg/disk
MIC [5]: >100 μg/disk
MIC [6]: >100 μg/disk
MIC [7]: >100 μg/disk
MIC [8]: >100 μg/disk
MIC [9]: 3.12-6.25 μg/disk
MIC [10]: 50-100 μg/disk
MIC [11]: 0.39-0.78 μg/disk
MIC [12]: 0.78-1.56 μg/disk
MIC [13]: 50-100 μg/disk
MIC [14]: 3.12-6.25 μg/disk
MIC [15]: 6.25-12.5 μg/disk
MIC [16]: 12.5-25 μg/disk
MIC [17]: >100 μg/disk
